# Reference: US5352810A, “Phosphatidylinositol analogues, inhibitors of phosphatidylinositol specific phospholipase C” (Mediolanum Farmaceutici S.p.A., priority 1991, dated 1994)
# How the values were obtained:
# [1] = tested on: K562 erythroleukaemia cell line; test: In vitro antitumoral activity / toxicity assay (propidium iodide, flow cytofluorometry); assay type: cell-based; conditions: FIG. 1
# Protocol: The compound described in example 1.3 and named 309 bis was tested to evaluate the "in vitro" antitumoral activity according to the following method:
# Cell cultures. K562 erythroleukaemia cell line was obtained from ATCC (Rockville, Md., USA). Cell culture media and plastic were from Flow (U.K.). Cells were grown in RPMI 1640 medium supplemented with 10% (v/v) heat-inactivated foetal calf serum, 2mM L-glutamine, 2.0 g.1^-1 bicarbonate, and 10 mM Hepes (4-(2-hydroxyethyl)-1-piperazine ethanesulphonic acid) in humidified atmosphere with 5% (v/v) CO2 at 37° C. Coltures were performed without the addition of any antibiotics, and were routinely checked for the presence of Mycoplasma infection.
# Toxicity assay. Cells were washed and suspended to the final concentration of 10^6 ml^-1 in a medium containing 5% (v/v) FCS. The chemical compounds under evaluation were diluted from a 2 mM stock solution containing 5% (v/v) FCS and 0.2% (v/v) dimethylsulphoxide (DMSO, FCS and medium were added in sequence to facilitate solubility); when necessary, solutions were treated with short sonical pulses. 0.2% DMSO was added to controls. […] The 560-580 nm fluorescence of the death cells, excited at 490-495 nm, was monitored on a FACS-analizer flow cytofluorometer (Becton Dickinson, Calif., USA) using a Consort 30 programme. […]
# [2] = target: phosphatidylinositol-specific phospholipase C (PLC); test: Inhibition of phosphatidylinositol-specific phospholipase C enzymatic activity (hydrolysis of [3H]phosphatidylinositol); assay type: biochemical; conditions: soluble fraction of human platelets; 20 min preincubation, 15 min reaction, pH 6.5, 37° C.; read-out: IC50 (Inhibitor concentration inhibiting 50% of the enzyme)
# Protocol: The following experiments were carried out with the compounds prepared in the Examples 1-5 above mentioned in order to evaluate their ability to inhibit the enzymatic activity of phosphatidylinositol-specific phospholipase C (PLC).
# The test were carried out according to the following operations.
# 1. Preparation of phosphatidylinositol-specific phospholipase C enzyme from human platelets.
# As the starting material human plasma enriched with human platelets was used.
# Platelets were precipitated from plasma by centrifugation at 0°-4° C. for 30 minutes at 2,500×g. The platelets precipitate was washed twice by using a buffer "A" Hepes pH 7 (137 mM NaCl, 20 mM Hepes; 1.0 mM EGTA; 5 mM glucose) and successively recovered by using buffer "B" Hepes (10 mM Hepes, pH 7).
# The platelets were sonicated and centrifuged at 3,200×g for 20 minutes at 0-4° C. The surnatant consisting of platelets homogenate, was separated and ultracentrifuged at 105,000×g for 1 hour, thereby obtaining two fractions: the soluble one and the particulate one, both containing PLC.
# 2. Preparation of phosphatidylinositol substrate.
# The substrate marked for PLC, L-3-phosphatidyl [2-^3 H] inositol, cod. […]
# The product was purified by HPLC and had the following characteristics: specific activity 20 Ci/mMol (22.6 mCi/mg), radioactivity concentration 50μCi/ml ([…]=1.85 ×10^6 Bq); the hydroxyl groups 1 and 2 of glycerol resulted esterified with stearic acid and arachidonic acid in 90% of the product.
# 1 ml of a chloroform solution containing L-phosphatidylinositol (10 mg/ml sigma cod P 25/7 containing mainly stearic acid and arachidonic acid) was taken. […] Marked phosphatidylinositol was added to 9 ml of said solution in such an amount that in 300μl of the solution (2.0× 10^-4 M) thus obtained, 130,078±1316 Dpm were recorded. […]
# In order to determine the inhibitory activity of the compounds of the present invention, said compounds and the enzyme were preincubated for 20 minutes. […] A suitable aliquot of the aqueous phase was utilized for the scintillatot readings.
Structure (SMILES),"% toxicity (percentage of killed cells), maximum ([1]; concentration 10^-3 -3×10^-3 M) [%]",antitumoral activity on erythroleukaemic cells ([1]; concentration 10^-5 M),IC50 [2] [µM]
"CCCCCCCCCCCCCCCCCCSP(=O)(O)O[C@@H]1[C@H](O)[C@H](O)[C@@H](O)[C@H](O)[C@H]1O (relative stereo) [Example 1.3, 1-O-(OCTADECYLPHOSPHOTHIOLYL)-MYO-INOSITOL]",~100,shows antitumoral activity,–
"CCCCCCCCCCCCCCSP(=O)(O)O[C@@H]1[C@H](O)[C@H](O)[C@@H](O)[C@H](O)[C@H]1O (relative stereo) [Example 3.3, 1-O-(TETRADECYLPHOSPHOTHIOLYL)-MYO-INOSITOL]",–,–,~100
"CCCCCCCCCCCCSP(=O)(O)O[C@@H]1[C@H](O)[C@H](O)[C@@H](O)[C@H](O)[C@H]1O (relative stereo) [Example 4.3, 1-O-(DODECYLPHOSPHOTHIOLYL)-MYO-INOSITOL]",–,–,> 100
"CCCCCCCCSP(=O)(O)O[C@@H]1[C@H](O)[C@H](O)[C@@H](O)[C@H](O)[C@H]1O (relative stereo) [Example 5.3, 1-O-(OCTYLPHOSPHOTHIOLYL)-MYO-INOSITOL]",–,–,> 100
